Experimental data as given in patent US20090042820A1, “Tubulin Binding Anti Cancer Agents And Prodrugs Thereof” (Threshold Pharmaceuticals, Inc., priority 2004, published 2009).
Like-named read-outs stand apart in the source and are kept apart here. Blank lines part the entries; values can stand above or below the compound they belong to.

Key:
[1] = patients, reported in literature; cited from earlier work
MES-SA = experiment: Alamar Blue antiproliferation assay, MES-SA; format: cell-based; settings: Homo sapiens, 72 h, 3 Day
H460 cells [2] = experiment: Alamar Blue antiproliferation assay, H460 cell line; format: cell-based, human; settings: Homo sapiens
Method: (§1) To determine the effect of the compounds of the present invention on cell proliferation, the antiproliferative activity of these compounds was tested in a multi-well Alamar Blue based assay (at 2 h and 3 days). Cell growth in the presence and absence of the test compound as tabulated in Table 1 was compared, as measured by a fluorescence plate reader at excitation 550 nm and emission 590 nm (see Biosource International Inc., Tech Application Notes, Use of Alamar Blue in the measurement of Cell Viability and Toxicity, Determining IC50). H460 cells (ATCC HTB-177 ([…]), 4,000 cells/well/200 μl) and LNCap cells (ATCC CRL-1740, 6,000 cells/well/200 μl) were seeded in a 96 well plate in RPMI medium (Invitrogen Corporation, Carlsbad, Calif.). After 24 hours, these plates were divided into 3 groups—Control group, 2 h treatment group and 3 day treatment group.
(§2) In the 2 h treatment group, after 2 h the cells were rinsed to remove the test compound and incubated for 3 days, followed by staining with AlamarBlue. The cells in the 3-day treatment group were incubated for 3 days, followed by staining with AlamarBlue. In the Control group, AlamarBlue was added to the plate at (i) day 0 and (ii) day 3 and measured to establish the control reading. In all the groups, the capacity of the cells to proliferate was measured 6 hours after addition of AlamarBlue by a fluorescence plate reader at excitation 550 nm and emission 590 nm.

H460 xenograft = H460 xenograft mouse model; format: in vivo; settings: for Treated/Control (T/C) ratio, tumor volume: compound 30 5 mg/kg daily for five days from day 8
Method: (§3) Female CB17/SCID mice (purchased from Taconic, Oxnard, Calif.), 7-8 weeks of age, were allowed to acclimatize for at least three days, and handled under pathogen-free conditions. Human non-small cell lung cancer cell line […] was obtained from the American Type Culture Collection. The cell lines were cultured in RPMI 1640 media supplemented with 10% fetal bovine serum. Cells were maintained in a 37° C. incubator with 5% CO2. The H460 cells were harvested from culture and inoculated at 1×10^6 cells/animal in the […] subcutaneous space. […] Taxol was administered approximately 2-3 hours before that of compound 30.
(§4) The body weight of each mouse was recorded twice per week (FIG. 1). […] One animal in the treatment group was found dead on day 18, and two were found dead on day 22 in the combination group.
(§5) FIG. 2 graphically illustrates the mean tumor volume for each treatment group. Growth of each xenograft was monitored by externally measuring tumors in two dimensions using a digital caliper twice per week. Tumor volume (V) was determined by the following equation: V=(L×W^2)/2, where L is the length and W is the width of a xenograft. Tumor volumes were measured twice weekly. On day 11, the Treated/Control (T/C) ratio was 65% and 52% in the treatment and combination groups, respectively. At the final measurement (day 22), the T/C ratio for the treatment and combination groups respectively were 43% and 19%.

[3] = H460 xenograft mouse model; format: in vivo; settings: female, mouse, in vivo; daily dose for five days, CB17/SCID mice; read-out: maximum tolerated dose
Method: as §3, §4, §5

MES-SA/DX5 = experiment: Alamar Blue antiproliferation assay, MES-SA/DX5; format: cell-based; settings: Homo sapiens, 72 h; MES-SA/DX5, 3 Day
[4] = Metabolic stability in mouse liver microsomes; format: in vitro ADME; settings: 5 μM, 1 mg/mL protein, NADPH, 37° C.
Method: An in vitro assessment of metabolic stability of compounds was performed using commercially available mouse liver microsomes (MLM) containing cytochrome P450 enzymes (Cedra Corp, Austin, Tex.). A solutions (5 μM) of a compound and microsomes (1 mg/mL protein) was prepared. P450 enzymatic reactions were initiated by adding an NADPH solution. Enzymatic reactions were carried out in a thermostated shaking water bath kept at 37° C. Fifty μl of the reaction mixture was withdrawn immediately and 30 minutes after the addition of the NADPH solution and the proteins were precipitated with acetonitrile. The clear supernatant was analyzed by reversed phase LC-MS/MS (Applied Biosystems API-3000 with Hypersil-BDS C18 column and gradient elution), with internal standard area ratio quantification for the amount the compound remaining as shown in table 4.

tubulin = experiment: Tubulin polymerization inhibition (cell free tubulin fluorescence); format: biochemical; settings: compared to untreated tubulin, read-out: IC50 (μM), concentration that reduced tubulin fluorescence by 50%
Method: A sample of cell free tubulin polymerizes and the sample's fluorescence emission increases. Inhibition of tubulin polymerization by a tubulin binding compounds of the present invention was measured by the dose dependence of cell free tubulin fluorescence.

cancer cell = experiment: Cancer cell antiproliferation assay (cell line not stated); format: cell-based; settings: summary statement; read-out: GI50 or IC50 in a cancer cell antiproliferation assay
Method: In one aspect, the present invention provides a compound of formula (I-VII) having a GI50, GI90, IC50, or IC50 of about 0.001 to about 1000 nM, about 0.01 to about 100 nm, about 0.1 to about 50 nM, and about 1 to about 10 nM in a cancer cell antiproliferation assay. In one embodiment, the present invention provides a compound of formula (I) having a GI50 or IC50 of about 0.01 to about 100 nm, about 0.1 to about 50 nm, and about 1 to about 10 nm in a cancer cell antiproliferation assay. In various embodiments, said antiproliferation assays employ cancer cell including but not limited to gastric, colon, breast, and non-small cell lung cancer. In various embodiments, the […] cancer cell used is MESSA or doxorubicin resistant MESSA/DX5 cell; the colon cancer cell is HT29 cell; the breast cancer cell is T47D cell; and the non-small cell lung cancer cell is H460 cell.
as §1, §2

H460 cells [5] = experiment: Cell cycle analysis; format: cell-based, human; settings: 24 h
Method: H460 cells (2×10^5 cells/ml/well) were seeded in a 24 well plate. The culture media were removed after 24 h, the cells were trypsinized and centrifuged. […] The cells were centrifuged and the supernatant was discarded. The cell cycle staining reagent (Guava Technologies, Hayward, Calif., USA, 200 μl) was added to each well. The cells were shielded from light and incubated at room temperature for 30 min.

T47D = experiment: Alamar Blue antiproliferation assay, T47D; format: cell-based; settings: Homo sapiens, 72 h, 3 Day
Plasma stability = format: in vitro ADME; settings: mouse plasma, 5 μM, 37° C.
Method: For an assessment of plasma stability of compounds, commercially available mouse plasma (Bioreclamation, Hicksville, N.Y.) was added to a DMSO solution of a compound, to a concentration of 5 μM. The reaction mixture (50 μl) was withdrawn immediately and after 30 minutes at 37° C., proteins were precipitated with acetonitrile. The clear supernatant was analyzed by reversed phase LC-MS/MS and the amount the compound remaining quantified as shown in table 4.

HT29 = experiment: Alamar Blue antiproliferation assay, HT29; format: cell-based; settings: Homo sapiens, HT-29, 72 h; HT29, 3 Day
[6] = NCI-H460, 2 h treatment, then 3 days incubation, read-out: GI50 (nM) 2 Hour
[7] = NCI-H460, 72 h, 3 day treatment, read-out: GI50 (nM) 3 Days

Structure (SMILES): COc1ccc(/C=C\c2cc(OC)c(OC)c(OC)c2)cc1OP(=O)(O)O [Combretastatin A-4 phosphate]
maximum tolerated daily dose [1]: 60-68 mg/m^2

Structure (SMILES): COc1cc(C(=O)c2n[nH]c3c(C#CCO)c(OC)ccc23)cc(OC)c1OC [Compound 30]
GI50 (MES-SA): 0.3 nM | GI50 (H460 cells [2]; [6]): 630 nM | GI50 (H460 cells [2]; [7]): 10 nM | toxicity at doses greater than 5 mg/kg (H460 xenograft; daily doses 20 and 50 mg/kg for five days, treatment and combination groups): toxic and caused lethality | Treated/Control (T/C) ratio, tumor volume (H460 xenograft; day 11): 65% | animals found dead (H460 xenograft; day 18, compound 30 5 mg/kg daily, ten per group): One | Treated/Control (T/C) ratio, tumor volume (H460 xenograft; day 22 (final measurement)): 43% | mean weight loss (H460 xenograft; day 22 from start of treatment on day 8, compound 30 5 mg/kg daily for five days): 8% | tumor volume as % of a control tumor volume (H460 xenograft; human cancer cell xenograft tumor bearing mice, summary statement): 5-70% | MTD at 5 days [3]: 5 to 20 mg/kg | GI50 (MES-SA/DX5): 1.6 nM | Metabolic stability (MLM, % remaining at 30 min) [4]: 101 ± 16% | IC50 (tubulin): 3.9 µM | IC50 (cancer cell): 1 to 50 nM | % G2/M (H460 cells [5]; H460, 0.4 nM): 31% | % Go/G1 (H460 cells [5]; H460, 0.4 nM): 46% | % S (H460 cells [5]; H460, 0.4 nM): 14% | % G2/M (H460 cells [5]; H460, 1.2 nM): 29% | % Go/G1 (H460 cells [5]; H460, 1.2 nM): 48% | % S (H460 cells [5]; H460, 1.2 nM): 15% | % G2/M (H460 cells [5]; H460, 3.7 nM): 31% | % Go/G1 (H460 cells [5]; H460, 3.7 nM): 46% | % S (H460 cells [5]; H460, 3.7 nM): 14% | % G2/M (H460 cells [5]; H460, 11.1 nM): 68% | % Go/G1 (H460 cells [5]; H460, 11.1 nM): 14% | % S (H460 cells [5]; H460, 11.1 nM): 9% | % G2/M (H460 cells [5]; H460, 33.3 nM): 80% | % Go/G1 (H460 cells [5]; H460, 33.3 nM): 7% | % S (H460 cells [5]; H460, 33.3 nM): 7% | GI50 (T47D): 2.5 nM | Plasma stability (% remaining at 30 min) (Plasma stability): 104% | GI50 (HT29): 1.9 nM

GI50 (H460 cells [2]; [6]): 501 nM | GI50 (H460 cells [2]; [7]): 3.2 nM | IC50 (cancer cell): 1 to 50 nM | GI50 (HT29): 5 nM
Structure (SMILES): COc1cc(C(=O)c2n[nH]c3c(C#CC(=O)O)c(OC)ccc23)cc(OC)c1OC [Compound 37]
GI50 (MES-SA): 3.2 nM | GI50 (MES-SA/DX5): 3.5 nM

GI50 (H460 cells [2]; [7]): 15.8 nM | IC50 (tubulin): 7.9 µM | IC50 (cancer cell): 1 to 50 nM | GI50 (T47D): 200 nM | GI50 (HT29): 12.6 nM
Structure (SMILES): COc1cc(C(=O)c2n[nH]c3c(Br)c(OC)ccc23)cc(OC)c1OC [Compound 39]
GI50 (MES-SA): 2.5 nM | GI50 (MES-SA/DX5): 10 nM | % G2/M (H460 cells [5]; H460, 0.4 nM): 28% | % Go/G1 (H460 cells [5]; H460, 0.4 nM): 50% | % S (H460 cells [5]; H460, 0.4 nM): 15% | % G2/M (H460 cells [5]; H460, 1.2 nM): 31% | % Go/G1 (H460 cells [5]; H460, 1.2 nM): 47% | % S (H460 cells [5]; H460, 1.2 nM): 14% | % G2/M (H460 cells [5]; H460, 3.7 nM): 32% | % Go/G1 (H460 cells [5]; H460, 3.7 nM): 45% | % S (H460 cells [5]; H460, 3.7 nM): 12% | % G2/M (H460 cells [5]; H460, 11.1 nM): 29% | % Go/G1 (H460 cells [5]; H460, 11.1 nM): 47% | % S (H460 cells [5]; H460, 11.1 nM): 14% | % G2/M (H460 cells [5]; H460, 33.3 nM): 60% | % Go/G1 (H460 cells [5]; H460, 33.3 nM): 18% | % S (H460 cells [5]; H460, 33.3 nM): 13%

GI50 (H460 cells [2]; [6]): 501 nM | GI50 (H460 cells [2]; [7]): 2 nM | IC50 (cancer cell): 1 to 50 nM | GI50 (T47D): 20 nM | GI50 (HT29): 5 nM
Structure (SMILES): COc1cc(C(=O)c2n[nH]c3c(/C=C/CO)c(OC)ccc23)cc(OC)c1OC [Compound 54]
GI50 (MES-SA): 3.2 nM | GI50 (MES-SA/DX5): 6.3 nM

GI50 (H460 cells [2]; [6]): > 10000 nM | GI50 (H460 cells [2]; [7]): 7.9 nM | IC50 (cancer cell): 1 to 50 nM | GI50 (T47D): 25 nM | GI50 (HT29): 10 nM
Structure (SMILES): COc1cc(C(=O)c2n[nH]c3c(CCCO)c(OC)ccc23)cc(OC)c1OC [Compound 55]
GI50 (MES-SA): 12 nM | GI50 (MES-SA/DX5): 15.8 nM

GI50 (H460 cells [2]; [6]): 100 nM | GI50 (H460 cells [2]; [7]): 10 nM | Metabolic stability (MLM, % remaining at 30 min) [4]: 21 ± 4%
Structure (SMILES): COc1cc(C(=O)c2n[nH]c3c(C#CCOC(=O)OCc4ccc([N+](=O)[O-])o4)c(OC)ccc23)cc(OC)c1OC [Compound 57]
